Test results published in patent US20250043299A1, “POINT MUTATIONS THAT BOOST AROMATIC AMINO ACID PRODUCTION AND CO2 ASSIMILATION IN PLANTS” (Wisconsin Alumni Research Foundation, priority 2021, published 2025).
Read-outs that look alike come from different tables or passages of the source.

Legend:
[1] = molecular target: T1, Arabidopsis thaliana DHS2 (AtDHS2), wild type (DHS2^WT), SEQ ID NO:2 (Arabidopsis thaliana, UniProt Q00218); settings: reference 9; cited from earlier work
T1 construct: without the predicted plastid transit peptide (amino acid residues; 49-525, 34-507, and 52-527, respectively); made in house; host or cells: E. coli Rosetta-2

DHS3^H1 = experiment: DHS enzyme assay, recombinant DHS3^H1; assay type: biochemical, Arabidopsis thaliana
Protocol: (§1) To generate DHS proteins with individual sota mutations via site-directed mutagenesis, these pET28a plasmid templates were diluted by 500-fold, mixed with 0.04 U/μL Phusion DNA polymerase (Thermo Scientific), 0.2 mM deoxynucleoside triphosphates (dNTPs), 1× Phusion reaction buffer (Thermo Scientific), and 0.5 μM forward and reverse mutagenesis primers (Table 10). The PCR reaction was run using the following protocol: 98° C. for 30 s followed by 20 cycles of 10 s at 98° C., 20 s at 70° C., 4.5 min at 72° C. with a final extension at 72° C. for 10 min. The PCR products were purified using a QIAquick Gel Extraction Kit (QIAGEN), treated with FastDigest DpnI (Thermo Scientific) to digest methylated plasmid template DNA for 20 min at 37° C., and transformed into E. coli cells. The mutagenized pET28a plasmids were sequenced to confirm that no errors were introduced during the mutagenesis process.
(§2) The DHS enzyme assays were conducted using the colorimetric method that we recently described (9). Briefly, the enzyme solution (7.7 μl) containing 50 mM Hepes (pH 7.4) was preincubated with an effector molecule(s) at room temperature for 15 min. For assays using recombinant protein and enzyme fractions isolated from plant leaves, 0.01 to 0.1 μg and approximately 50 μg of proteins were used, respectively. After adding 0.5 μl of 0.1 M dithiothreitol, the samples were further incubated at room temperature for 15 min. During these incubations, the substrate solution containing 50 mM Hepes (pH 7.4), 2 mM MnCl2, 4 mM E4P, and 4 mM PEP at final concentration was preheated at 37° C. The enzyme reaction was started by adding 6.8 μl of the substrate solution, then incubated at 37° C. for 30 min, and terminated by adding 30 μl of 0.6 M trichloroacetic acid. After a brief centrifugation, 5 μl of 200 mM NaIO4 (sodium meta-periodate) in 9 N H3PO4 was added to oxidize the enzymatic product and to incubate at 25° C. for 20 min. To stop the oxidation reaction, 20 μl of 0.75 M NaAsO2 (sodium arsenite), which was dissolved in 0.5 M Na2SO4 and 0.05 M H2SO4, was added and immediately mixed. […]

DHS1^WT [2] = molecular target: T2, DHS1^WT (Arabidopsis thaliana, UniProt P29976); settings: AAAs, chorismate, caffeate: from Yokoyama et al., Plant Cell, 2021, cited from earlier work
T2 construct: without the predicted plastid transit peptide (amino acid residues; 49-525, 34-507, and 52-527, respectively); made in house; host or cells: E. coli Rosetta-2

DHS3^G1 = experiment: DHS enzyme assay, recombinant DHS3^G1; assay type: biochemical, Arabidopsis thaliana
Protocol: as §1, §2

DHS3^WT = settings: AAAs: from Yokoyama et al., Plant Cell, 2021; cited from earlier work
DHS2^A11 = molecular target: T3, DHS2^A11 (Arabidopsis thaliana, UniProt Q00218, A224T); experiment: DHS enzyme assay, recombinant DHS2^A11; assay type: biochemical; settings: effector up to 1 mM
T3 construct: without the predicted plastid transit peptide (amino acid residues; 49-525, 34-507, and 52-527, respectively); made in house; host or cells: E. coli
Protocol: as §1, with “To generate recombinant DHS proteins the pET28a vectors carrying the A. thaliana DHS1 (AtDHS1), AtDHS2, or AtDHS3 WT sequence without the predicted plastid transit peptide (amino acid residues; 49-525, 34-507, and 52-527, respectively) were expressed in E. coli Rosetta-2 cells and purified using Ni-affinity chromatography, exactly as was conducted previously (9). To” for “To”
(§3) The DHS enzyme assays were conducted using the colorimetric method that we recently described (9). Briefly, the enzyme solution (7.7 μl) containing 50 mM Hepes (pH 7.4) was preincubated with an effector molecule(s) at room temperature for 15 min. For assays using recombinant protein and enzyme fractions isolated from plant leaves, 0.01 to 0.1 μg and approximately 50 μg of proteins were used, respectively. After adding 0.5 μl of 0.1 M dithiothreitol, the samples were further incubated at room temperature for 15 min. During these incubations, the substrate solution containing 50 mM Hepes (pH 7.4), 2 mM MnCl2, 4 mM E4P, and 4 mM PEP at final concentration was preheated at 37° C. The enzyme reaction was started by adding 6.8 μl of the substrate solution, then incubated at 37° C. for 30 min, and terminated by adding 30 μl of 0.6 M trichloroacetic acid. After a brief centrifugation, 5 μl of 200 mM NaIO4 (sodium meta-periodate) in 9 N H3PO4 was added to oxidize the enzymatic product and to incubate at 25° C. for 20 min. To stop the oxidation reaction, 20 μl of 0.75 M NaAsO2 (sodium arsenite), which was dissolved in 0.5 M Na2SO4 and 0.05 M H2SO4, was added and immediately mixed. After 5 min of incubation at room temperature, one-third of the sample solution was transferred to a new tube to be mixed with 50 μl of 40 mM thiobarbituric acid and incubated at 99° C. for 15 min in a thermal cycler. The mixture was added to 600 μl of cyclohexanone in eight-strip solvent-resistant plastic tubes, mixed vigorously, and centrifuged at 4500 g for 3 min to separate water- and cyclohexanone-based layers for the extraction off the developed pink chromophore. The absorbance of the pink supernatant was read at 549 nm with the microplate reader (Infinite 200 PRO, TECAN) to calculate DAHP production with the molar extinction coefficient at 549 nm (ε=549 nm) of 4.5×10^4 M^−1 cm^−1. Reaction mixtures with boiled enzymes were run in parallel and used as negative controls to estimate the background signal.

DHS1^B4 = molecular target: T4, DHS1^B4 (Arabidopsis thaliana, UniProt P29976, G244R); experiment: DHS enzyme assay, recombinant DHS1^B4; assay type: biochemical
T4 construct: without the predicted plastid transit peptide (amino acid residues; 49-525, 34-507, and 52-527, respectively); made in house; host or cells: E. coli
Protocol: as §1, with “To generate recombinant DHS proteins the pET28a vectors carrying the A. thaliana DHS1 (AtDHS1), AtDHS2, or AtDHS3 WT sequence without the predicted plastid transit peptide (amino acid residues; 49-525, 34-507, and 52-527, respectively) were expressed in E. coli Rosetta-2 cells and purified using Ni-affinity chromatography, exactly as was conducted previously (9). To” for “To”
as §3

[3] = molecular target: T5, Arabidopsis thaliana DHS2 (SEQ ID NO:2) variant DHS2^A4 (sotaA4), G222S (Arabidopsis thaliana, UniProt Q00218, G222S); experiment: Differential scanning fluorimetry protein-ligand affinity analysis, DHS2 sotaA4; assay type: binding; settings: ligand at 1 mM
T5 construct: without the predicted plastid transit peptide (amino acid residues; 49-525, 34-507, and 52-527, respectively); made in house; host or cells: E. coli
Protocol: (A) Simplified pathway map of AAAs and AAA-derived metabolites used in the effector screening. […] Data are means±SEM (n=3 independent assays).
To examine the impact of the sota mutations on the interaction between DHS and AAA effectors (FIG. 22), a differential scanning fluorimetry (DSF) analysis (48) was conducted using the recombinant DHS2^WT and DHS2^A4 proteins. […] The fluorescence signal was monitored during the stepwise increase in temperature (1° C. per minute from 25° C. to 95° C.). The Tm was calculated by nonlinear regression analysis using the Boltzmann sigmoidal equation (48).

DHS2^F1 = molecular target: T6, DHS2^F1 (Arabidopsis thaliana, UniProt Q00218, L136F); experiment: DHS enzyme assay, recombinant DHS2^F1; assay type: biochemical; settings: effector up to 1 mM
T6 construct: without the predicted plastid transit peptide (amino acid residues; 49-525, 34-507, and 52-527, respectively); made in house; host or cells: E. coli
Protocol: as §1, with “To generate recombinant DHS proteins the pET28a vectors carrying the A. thaliana DHS1 (AtDHS1), AtDHS2, or AtDHS3 WT sequence without the predicted plastid transit peptide (amino acid residues; 49-525, 34-507, and 52-527, respectively) were expressed in E. coli Rosetta-2 cells and purified using Ni-affinity chromatography, exactly as was conducted previously (9). To” for “To”
as §3

DHS1^WT [4] = molecular target: T2, DHS1^WT; experiment: DHS enzyme assay (colorimetric), recombinant DHS1^WT; assay type: biochemical
Protocol: as §1, with “To generate recombinant DHS proteins the pET28a vectors carrying the A. thaliana DHS1 (AtDHS1), AtDHS2, or AtDHS3 WT sequence without the predicted plastid transit peptide (amino acid residues; 49-525, 34-507, and 52-527, respectively) were expressed in E. coli Rosetta-2 cells and purified using Ni-affinity chromatography, exactly as was conducted previously (9). To” for “To”
as §3

[5] = molecular target: T7, Arabidopsis thaliana DHS1 (AtDHS1), wild type (DHS1^WT), SEQ ID NO:1 (Arabidopsis thaliana, UniProt P29976); experiment: DHS enzyme assay with effector, Arabidopsis DHS1 WT; assay type: biochemical; settings: effector screening (FIG. 2D)
T7 construct: without the predicted plastid transit peptide (amino acid residues; 49-525, 34-507, and 52-527, respectively); made in house; host or cells: E. coli Rosetta-2
Protocol: as §1, §2

[6] = molecular target: T8, Arabidopsis thaliana DHS1 (SEQ ID NO:1) variant DHS1^B4 (sotaB4), G244R (Arabidopsis thaliana, UniProt P29976, G244R); experiment: DHS enzyme assay with effector, DHS1 sotaB4; assay type: biochemical
T8 construct: without the predicted plastid transit peptide (amino acid residues; 49-525, 34-507, and 52-527, respectively); made in house; host or cells: E. coli
Protocol: as §1, with “To generate recombinant DHS proteins the pET28a vectors carrying the A. thaliana DHS1 (AtDHS1), AtDHS2, or AtDHS3 WT sequence without the predicted plastid transit peptide (amino acid residues; 49-525, 34-507, and 52-527, respectively) were expressed in E. coli Rosetta-2 cells and purified using Ni-affinity chromatography, exactly as was conducted previously (9). To” for “To”
as §3

DHS2^A4 = molecular target: T9, DHS2^A4 (Arabidopsis thaliana, UniProt Q00218, G222S); assay type: biochemical; settings: effector up to 1 mM
T9 construct: without the predicted plastid transit peptide (amino acid residues; 49-525, 34-507, and 52-527, respectively); made in house; host or cells: E. coli
Protocol: as §1, with “To generate recombinant DHS proteins the pET28a vectors carrying the A. thaliana DHS1 (AtDHS1), AtDHS2, or AtDHS3 WT sequence without the predicted plastid transit peptide (amino acid residues; 49-525, 34-507, and 52-527, respectively) were expressed in E. coli Rosetta-2 cells and purified using Ni-affinity chromatography, exactly as was conducted previously (9). To” for “To”
as §3

[7] = molecular target: T5, Arabidopsis thaliana DHS2 (SEQ ID NO:2) variant DHS2^A4 (sotaA4), G222S; experiment: biochemical; assay type: biochemical; settings: up to 1 mM Tyr, Trp (FIG. 2C); shikimate, arogenate, prephenate at 1 mM (FIG. 21A)
Protocol: as §1, with “To generate recombinant DHS proteins the pET28a vectors carrying the A. thaliana DHS1 (AtDHS1), AtDHS2, or AtDHS3 WT sequence without the predicted plastid transit peptide (amino acid residues; 49-525, 34-507, and 52-527, respectively) were expressed in E. coli Rosetta-2 cells and purified using Ni-affinity chromatography, exactly as was conducted previously (9). To” for “To”
as §3

DHS2^WT = molecular target: T10, DHS2^WT (Arabidopsis thaliana, UniProt Q00218); experiment: DHS enzyme assay, recombinant DHS2^WT; assay type: biochemical; settings: FIG. 2D
T10 construct: without the predicted plastid transit peptide (amino acid residues; 49-525, 34-507, and 52-527, respectively); made in house; host or cells: E. coli Rosetta-2
Protocol: as §1, with “To generate recombinant DHS proteins the pET28a vectors carrying the A. thaliana DHS1 (AtDHS1), AtDHS2, or AtDHS3 WT sequence without the predicted plastid transit peptide (amino acid residues; 49-525, 34-507, and 52-527, respectively) were expressed in E. coli Rosetta-2 cells and purified using Ni-affinity chromatography, exactly as was conducted previously (9). To” for “To”
as §3

T2 sequence (P29976 49-525): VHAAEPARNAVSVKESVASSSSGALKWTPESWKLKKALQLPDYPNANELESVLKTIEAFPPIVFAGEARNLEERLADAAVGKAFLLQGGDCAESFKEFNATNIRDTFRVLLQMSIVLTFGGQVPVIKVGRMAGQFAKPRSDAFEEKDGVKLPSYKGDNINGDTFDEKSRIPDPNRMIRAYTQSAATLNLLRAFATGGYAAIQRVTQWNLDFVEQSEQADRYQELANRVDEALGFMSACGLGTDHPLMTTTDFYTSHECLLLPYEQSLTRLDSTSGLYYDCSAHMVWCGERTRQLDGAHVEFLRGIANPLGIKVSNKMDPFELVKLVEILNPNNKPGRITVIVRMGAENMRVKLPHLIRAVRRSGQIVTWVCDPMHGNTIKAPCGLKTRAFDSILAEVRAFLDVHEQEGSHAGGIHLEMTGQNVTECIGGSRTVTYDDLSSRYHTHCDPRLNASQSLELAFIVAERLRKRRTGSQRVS
T4 sequence (P29976 49-525 G244R): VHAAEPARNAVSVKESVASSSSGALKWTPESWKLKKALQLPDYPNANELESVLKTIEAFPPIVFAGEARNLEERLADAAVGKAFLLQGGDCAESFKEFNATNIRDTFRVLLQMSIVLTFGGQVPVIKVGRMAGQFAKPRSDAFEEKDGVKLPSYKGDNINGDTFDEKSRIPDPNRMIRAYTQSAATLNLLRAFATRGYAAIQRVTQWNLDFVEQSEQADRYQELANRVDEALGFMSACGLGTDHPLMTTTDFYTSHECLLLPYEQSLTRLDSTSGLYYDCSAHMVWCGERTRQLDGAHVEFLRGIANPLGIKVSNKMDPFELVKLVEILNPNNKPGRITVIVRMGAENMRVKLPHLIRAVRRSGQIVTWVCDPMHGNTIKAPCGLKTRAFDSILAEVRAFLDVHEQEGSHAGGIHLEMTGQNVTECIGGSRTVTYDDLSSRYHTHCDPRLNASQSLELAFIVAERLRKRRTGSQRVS
T5 sequence (Q00218 34-507 G222S): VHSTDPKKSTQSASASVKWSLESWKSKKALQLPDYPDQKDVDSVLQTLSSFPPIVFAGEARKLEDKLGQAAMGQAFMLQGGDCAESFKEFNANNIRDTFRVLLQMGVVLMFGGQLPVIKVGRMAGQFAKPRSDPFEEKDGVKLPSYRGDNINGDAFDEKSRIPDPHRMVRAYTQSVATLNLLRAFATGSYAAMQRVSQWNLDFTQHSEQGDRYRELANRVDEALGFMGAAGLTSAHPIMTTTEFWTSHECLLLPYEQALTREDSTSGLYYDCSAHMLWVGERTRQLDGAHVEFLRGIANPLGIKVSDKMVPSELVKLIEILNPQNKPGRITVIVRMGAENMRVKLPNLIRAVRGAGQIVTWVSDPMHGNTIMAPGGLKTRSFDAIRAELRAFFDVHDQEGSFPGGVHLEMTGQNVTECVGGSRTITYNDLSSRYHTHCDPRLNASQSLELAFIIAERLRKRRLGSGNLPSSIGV
T7 sequence (P29976 49-525): as the sequence (P29976 49-525) above
T1 sequence (Q00218 34-507): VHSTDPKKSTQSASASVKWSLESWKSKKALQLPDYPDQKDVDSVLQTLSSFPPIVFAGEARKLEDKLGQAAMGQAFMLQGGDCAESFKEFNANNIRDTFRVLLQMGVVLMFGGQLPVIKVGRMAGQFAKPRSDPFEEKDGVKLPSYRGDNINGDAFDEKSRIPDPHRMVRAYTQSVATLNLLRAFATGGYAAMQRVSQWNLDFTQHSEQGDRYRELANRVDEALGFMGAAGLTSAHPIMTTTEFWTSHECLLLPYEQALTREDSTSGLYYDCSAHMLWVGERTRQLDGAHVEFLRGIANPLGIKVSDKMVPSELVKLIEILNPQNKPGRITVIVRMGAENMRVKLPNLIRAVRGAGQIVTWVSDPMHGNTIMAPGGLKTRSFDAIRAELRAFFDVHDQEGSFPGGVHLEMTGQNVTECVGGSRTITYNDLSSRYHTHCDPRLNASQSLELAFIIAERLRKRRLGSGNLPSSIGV
T9 sequence (Q00218 34-507 G222S): as the sequence (Q00218 34-507 G222S) above
T10 sequence (Q00218 34-507): as the sequence (Q00218 34-507) above
T6 sequence (Q00218 34-507 L136F): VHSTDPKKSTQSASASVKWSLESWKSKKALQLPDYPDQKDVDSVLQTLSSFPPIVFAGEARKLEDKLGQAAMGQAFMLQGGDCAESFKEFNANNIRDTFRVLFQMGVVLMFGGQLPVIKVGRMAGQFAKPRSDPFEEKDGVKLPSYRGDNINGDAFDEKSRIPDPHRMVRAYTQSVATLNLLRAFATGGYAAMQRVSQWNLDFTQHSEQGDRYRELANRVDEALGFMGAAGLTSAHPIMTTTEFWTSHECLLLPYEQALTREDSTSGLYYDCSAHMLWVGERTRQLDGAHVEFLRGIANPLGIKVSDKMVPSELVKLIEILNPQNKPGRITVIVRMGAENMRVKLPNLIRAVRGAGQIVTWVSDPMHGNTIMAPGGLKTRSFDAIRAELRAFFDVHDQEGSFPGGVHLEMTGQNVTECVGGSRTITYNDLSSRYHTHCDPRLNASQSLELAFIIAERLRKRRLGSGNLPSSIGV
T3 sequence (Q00218 34-507 A224T): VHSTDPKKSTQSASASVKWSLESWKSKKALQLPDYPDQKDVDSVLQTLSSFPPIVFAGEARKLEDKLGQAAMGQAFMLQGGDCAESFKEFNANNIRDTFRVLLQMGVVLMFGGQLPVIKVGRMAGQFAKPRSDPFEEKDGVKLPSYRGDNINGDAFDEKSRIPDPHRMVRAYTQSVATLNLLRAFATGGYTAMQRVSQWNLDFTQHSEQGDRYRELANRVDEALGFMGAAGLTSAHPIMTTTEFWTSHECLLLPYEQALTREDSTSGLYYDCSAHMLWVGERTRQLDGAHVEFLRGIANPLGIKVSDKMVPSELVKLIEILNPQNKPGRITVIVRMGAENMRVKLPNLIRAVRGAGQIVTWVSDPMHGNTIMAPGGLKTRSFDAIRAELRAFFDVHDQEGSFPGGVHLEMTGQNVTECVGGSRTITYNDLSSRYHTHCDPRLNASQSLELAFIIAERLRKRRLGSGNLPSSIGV
T8 sequence (P29976 49-525 G244R): as the sequence (P29976 49-525 G244R) above

Q: With `N[C@@H](Cc1ccc(O)cc1)C(=O)O` [Tyr, tyrosine] as the compound, how does the “inhibition of DHS2” value [1] read?
A: inhibit Arabidopsis DHS2

Q: What about the “IC50 of effector molecule on DHS3^H1” value (DHS3^H1) of the same compound?
A: Not inhibited

Q: And the “IC50 of effector molecule on DHS1^WT” value (DHS1^WT [2])?
A: Not inhibited

Q: And the “IC50 of effector molecule on DHS3^G1” value (DHS3^G1)?
A: Not inhibited

Q: And the “IC50 of effector molecule on DHS3^WT” value (DHS3^WT)?
A: Not inhibited

Q: And the “inhibition of DHS2^A11 activity” value (DHS2^A11)?
A: not inhibited

Q: And the “IC50 of effector molecule on DHS1^B4” value (DHS1^B4; recombinant enzyme)?
A: Not inhibited

Q: What about the “binding (DSF)” value [3] of the same compound?
A: still binds Tyr and Trp

Q: And the “inhibition of DHS2^F1 activity” value (DHS2^F1)?
A: not inhibited

Q: Which results are given for `O=C(O)CCc1c[nH]c2ccccc12` [Indole-3-propionic acid]?
A: IC50 (DHS1^WT [4]): 2060 µM; IC50 (DHS1^B4): 2000 µM

Q: For `c1ccc2[nH]ccc2c1` [indole], which “inhibition of DHS1^WT activity” value [5] is on record?
A: did not affect the activity of DHS1

Q: For `O=C(O)/C=C/c1ccc(O)c(O)c1` [Caffeate], which IC50 [6] is on record?
A: 65.2 µM

Q: What about the IC50 (DHS1^WT [2]; read-out: IC50 of effector molecule on DHS1^WT) of the same compound?
A: 108 µM

Q: What about the “inhibition of DHS1^B4 activity” value (DHS1^B4) of the same compound?
A: still strongly inhibited

Q: What about the IC50 (DHS1^B4; read-out: IC50 of effector molecule on DHS1^B4) of the same compound?
A: 65.2 µM

Q: Which “inhibition of DHS2” value [1] does the source give for `N[C@@H](CC1(C(=O)O)C=CC(O)C=C1)C(=O)O` (stereo partly shown) [arogenate] here?
A: slightly inhibit DHS2

Q: What about the “inhibition of DHS2^A4 activity” value (DHS2^A4) of the same compound?
A: still inhibited

Q: What about the “inhibition of DHS2^A4” value [7] of the same compound?
A: still inhibited

Q: What does the source list for `NCCc1c[nH]c2ccccc12` [tryptamine]?
A: effect on DHS1 activity (effector screening) (DHS1^WT [4]; FIG. 2D): did not affect the activity; effect on DHS2 activity (effector screening) (DHS2^WT): slight reduction; inhibition of DHS1^WT activity [5]: did not affect the activity of DHS1
